In patent US20220089600A1, “TGFß INHIBITOR AND PRODRUGS” (FUNDACIÓ INSTITUT DE RECERCA BIOMÈDICA (IRB BARCELONA), priority 2018, published 2022):

Legend:
LigF = biological target: T1, LigF (Sphingobium sp., UniProt P30347); assay: In vitro fluorescence assay with purified LigF; format: biochemical, Sphingobium sp. strain SYK-6; conditions: 30 μM substrate, 15 μg/ml LigF, 1 mM glutathione, room temperature
T1 construct: made in house; host or cells: E. coli BL21 (DE3) Rosetta lysS
T1 sequence (P30347 1-257): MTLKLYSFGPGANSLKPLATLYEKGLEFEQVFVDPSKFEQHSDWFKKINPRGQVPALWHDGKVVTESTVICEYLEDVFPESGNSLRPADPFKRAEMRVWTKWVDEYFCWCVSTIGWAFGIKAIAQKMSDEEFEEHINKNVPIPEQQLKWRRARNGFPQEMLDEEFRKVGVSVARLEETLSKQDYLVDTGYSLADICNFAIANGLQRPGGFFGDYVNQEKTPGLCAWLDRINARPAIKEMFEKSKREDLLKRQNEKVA
Method: To test the enzymatic activity of LigF, pure LigF protein was expressed by the Protein Expression Core Facility within the IRB Barcelona by inserting the His-tagged LigF DNA into a pOPINF vector and expressed in E. coli BL21 (DE3) Rosetta IysS cells. After expression and lysis, the protein was purified by using a nickel column followed by gel filtration. Noteworthy, the His tags were not removed from the protein after purification.
For in vitro fluorescence assays, purified LigF was diluted to 15 μg/ml in 20 mM Tris-HCl (pH 7.5), 1 mM glutathione and 30 μM 4-methylumbelliferone acetovanillone (MUAV) model compound was added.
Reactions were performed in a 96-well solid polystyrene plate (Corning) and measured with a top-well plate reader (BioTek FL600 fluorometer) at 360 excitation, 485 emission and sensitivity 100.
Due to a rapid rate of production of 4-methylumbelliferone (4-MU) owing to the cleavage of the beta-ether bond of compound MUAV, the protocol described by Masai (E. Masai et al., J. Bacteriol. 2003, 185, 1768-75) was modified by lowering the LigF enzyme concentration. With this optimized protocol, compound MUAV was incubated at room temperature in the presence of a buffer, glutathione (GSH) and LigF, and followed the cleavage by observing the production of 4-MU by fluorescence. […] Enzyme LigF cleaved product MUAV in approximately 30-40 min (FIG. 6).

[1] = biological target: T2, LigF expressed in HEK293T cells (Sphingobium sp., UniProt P30347); assay: Fluorescence assay in HEK293T cells stably expressing LigF; format: cell-based
T2 construct: expressed in transfected cells; host or cells: HEK293T (lentiviral pLenti PGK puro)
Method: […]. At time points after addition of various concentrations of MUAV, namely 10, 30, and 100 μM, culture medium was taken for measurements of 4-MU fluorescence.

COc1cc(C(=O)COc2ccc3c(C)cc(=O)oc3c2)ccc1O [MUAV, 7-(2-(4-hydroxy-3-methoxyphenyl)-2-oxoethoxy)-4-methyl-2H-chromen-2-one]
time for cleavage by LigF (LigF): 30 to 40 min | cleavage of ether bond (4-MU fluorescence) ([1]; HEK293T expressing LigF, 10, 30, 100 μM): dose-dependent increase in fluorescence | cleavage of ether bond (4-MU fluorescence) ([1]; HEK293T with empty vector (no LigF), 100 μM): No cleavage
